The text below walks through data of US5914242A, “Method for diminishing myocardial infarction using protein phosphatase inhibitors” (priority 1997, dated 1999).

One assay deals with PP1/PP2A-chimera (CRHM2). Kind of assay: Inhibition of recombinant PP1/PP2A chimera. In kind it is biochemical, human PP1 / bovine PP2A. The conditions noted are these: enzyme printed as rPP2Ac-1. As for the experimental part:
FIG. 6: Sequence of a PP1/PP2A chimera. To characterize the fostriecin binding site, the N-terminal region of PP1 was ligated to the C-terminal region of PP2A (in bold) to produce a PP1/PP2A-chimera (CRHM2). Previous studies indicate that the okadaic acid binding domain is contained in the C-terminal region of PP2A that was incorporated into CRHM2.
FIG. 7: Effect of fostriecin and okadaic acid on the activity of recombinant CRHM2. CRHM2 activity was assayed in the presence of the indicated amount of fostriecin (FIG. 7A) or okadaic acid (FIG. 7B). […] Assays were conducted as described in FIG. 5. Each point represents the mean ± SE (n>6).
(§1) PP1, an enzyme highly homologous to PP2A, could be expressed in a stable manner and in relatively large amounts. Thus, human PP1 was cloned and subcloned into a bacterial expression vector as was done for PP2A. […] To create a hybrid enzyme (a PP1/PP2A chimera) that could be expressed stably like rPP1 but would bind okadaic acid with high affinity like PP2A, a number of mutant forms of PP1 and PP2A were constructed. Then, through mutational analysis, the okadaic acid binding domain of PP2A was identified. The okadaic acid binding domain from PP2A was cloned behind the amino terminal domain of PP1. The hybrid, referred to as CRHM-2, was subcloned into an expression vector. Restriction analysis of CRHM-2 confirmed the identity of the construct.
In these studies, the bacterial expressed PP1/PP2A hybrid enzyme was produced by growing appropriate strains of transformed E. coli at 18° C. for 48 hours in LB-media containing 50 μg/ml ampicillin, 1 mM MnCl2, and 50 μM IPTG. The bacteria were lysed with a French Press, and after centrifugation at 15,000×g for 45 min, the phosphatase was partially purified via ion-exchange [High Q (BioRad) and MonoQ (Pharmacia)] and affinity [Heparin-Sepharose (Pharmacia)] chromatography. The sensitivity of the chimera to fostriecin was determined employing the same protein phosphatase assay employed with endogenous PP1 or PP2A, with the addition of MnCl2 (1 mM) to the assay buffer.

The next assay has as its system rPP1. As to the kind of experiment: Inhibition of recombinant PP1. Conditions: bacterially expressed human PP1. The assay is classed as biochemical.
Text: as §1

On to `C=C1[C@@H](O)[C@@H]2O[C@]3(CC[C@H](/C=C/[C@@H](C)[C@@H]4CC(C)=C[C@@]5(O[C@H](C[C@@](C)(O)C(=O)O)CC[C@H]5O)O4)O3)CC[C@H]2O[C@@H]1[C@@H](O)C[C@H](C)[C@H]1O[C@@]2(CCCCO2)CC[C@H]1C` [okadaic acid, reference compound], for which the “binding affinity to the recombinant hybrid enzyme” value in the assay on PP1/PP2A-chimera (CRHM2) was “comparable affinity to PP2A”. In addition, the “sensitivity of rPP1 to inhibition, relative to PP2A” value in the assay with rPP1 was “less sensitive to inhibition by okadaic acid than PP2A”.
